Source: US20260070945A1, “MACROCYCLIC IMMUNOMODULATORS” (Bristol-Myers Squibb Company, priority 2022, published 2026)
*1 amine or outer side, *2 acyl side, *3 side chain or, on linkers, in order; H or OH if unused. Where a SMILES comes first, the peptide text is derived from it. Bridges are numbered along the chain shown (N, C = ends). [ ]: non-standard residue; d: D form. The star is where a group is joined. ξ: configuration not given here. Phe(3-CF3) = N[C@@H](Cc1cccc(C(F)(F)F)c1)C(=O)O; Phe(4-CONH2) = NC(=O)c1ccc(C[C@H](N)C(=O)O)cc1; Phe(4-COOH) = N[C@@H](Cc1ccc(C(=O)O)cc1)C(=O)O; Bip = N[C@@H](Cc1ccc(-c2ccccc2)cc1)C(=O)O; Phe(3-Me) = Cc1cccc(C[C@H](N)C(=O)O)c1; γGlu = O=C(O)[C@H](CCC(=O)[*:2])N[*:1]; Abu(3S-NH2) = C[C@H](N)[C@H](N)C(=O)O; NH(CH2)12COOH = O=C(O)CCCCCCCCCCCCN*; Val(3-OH) = CC(C)(O)[C@H](N)C(=O)O; Hexyloxycarbonyl = CCCCCCOC(=O)*; aIle = CC[C@@H](C)[C@H](N)C(=O)O; 4Pal = N[C@@H](Cc1ccncc1)C(=O)O; Cha = N[C@@H](CC1CCCCC1)C(=O)O; Cit = NC(=O)NCCC[C@H](N)C(=O)O; Ile(3ξ) = CCC(C)[C@H](N)C(=O)O; Thr(3ξ) = CC(O)[C@H](N)C(=O)O; 12Ado = NCCCCCCCCCCCC(=O)O; Carboxymethyl = O=C(O)C*; NMeA = CN[C@@H](C)C(=O)O; Orn = NCCC[C@H](N)C(=O)O; Aun = NCCCCCCCCCCC(=O)O; Dab = NCC[C@H](N)C(=O)O; AEEA = NCCOCCOCC(=O)O

Each molecule was assayed against T1, PD-1/PD-L1 interaction (PE-labeled human PD-L1-Ig binding to Jurkat cell line over-expressing human PD-1) (Homo sapiens, UniProt Q15116) (assay: Jurkat-PD-1 Cell Binding High-Content Screening Assay (CBA)). Details: Jurkat-hPD-1 cells, PE-labeled PD-L1-Ig 20 nM final; read-out: Jurkat HPD1 PDL1 IC50.
T1 construct: expressed in transfected cells; host or cells: Jurkat
Summary of the method: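 Compound is added first to the PD-1-expressing Jurkat cells and held 2 h at 37 °C in serum-containing DMEM. The fluorescent PD-L1 fusion follows at 20 nM final for 1 h. Fixed, Hoechst-stained cells are then imaged for bound label.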

T1 sequence (Q15116 25-288): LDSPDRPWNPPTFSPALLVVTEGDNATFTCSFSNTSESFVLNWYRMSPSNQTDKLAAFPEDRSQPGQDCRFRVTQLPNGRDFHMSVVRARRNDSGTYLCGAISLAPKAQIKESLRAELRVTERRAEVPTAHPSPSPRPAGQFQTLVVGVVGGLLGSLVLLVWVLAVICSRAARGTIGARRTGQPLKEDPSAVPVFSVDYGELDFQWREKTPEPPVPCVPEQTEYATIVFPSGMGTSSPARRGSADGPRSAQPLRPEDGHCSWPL

| SMILES | IC50 [nM] |
| --- | --- |
| CC(C)C[C@H]1NC(=O)[C@H](C)N(C)C(=O)[C@H](CCCNC(N)=O)NC(=O)[C@H](Cc2ccc(-c3ccccc3)cc2)NC(=O)[C@H](Cc2ccc(C(=O)O)cc2)NC(=O)[C@H](Cc2cccc(C(F)(F)F)c2)NC(=O)[C@H](CC(=O)O)NC(=O)[C@H](Cc2ccc(OCC(=O)O)cc2)NC(=O)[C@H](Cc2ccc(C(=O)O)cc2)NC(=O)CSC[C@@H](C(=O)N[C@@H](CCN)C(=O)NCCCCCCCCCCCCC(=O)O)NC(=O)[C@H](CO)NC(=O)[C@H](C(C)(C)O)NC(=O)[C@H](CC2CCCCC2)NC(=O)[C@H](CCN)NC1=O [Example 1148] ({CH2CO}-[Phe(4-COOH)]Y(Carboxymethyl)D[Phe(3-CF3)][Phe(4-COOH)][Bip][Cit][NMeA][dL][Dab][Cha][Val(3-OH)]SC[Dab]-{NH(CH2)12COOH}; thioether N-14) | 17.8 |
| CC(C)C[C@@H]1NC(=O)[C@H](Cc2c[nH]c3ccccc23)NC(=O)[C@H](CC(=O)O)NC(=O)[C@H](Cc2ccc(C(=O)O)cc2)NC(=O)[C@H](Cc2ccc(OCC(=O)O)cc2)NC(=O)CSC[C@@H](C(=O)N[C@@H](CCCN)C(=O)NCCOCCOCC(=O)NCCCCCCCCCCC(N)=O)NC(=O)[C@H](CCCNC(N)=O)NC(=O)[C@H](C(C)C)NC(=O)[C@H](CC2CCCCC2)NC(=O)[C@H](CCN)NC(=O)[C@@H](CC(C)C)NC(=O)[C@H](C)N(C)C(=O)[C@H](C(C)C)NC(=O)[C@H](Cc2ccc(-c3ccccc3)cc2)NC1=O [Example 1215] ({CH2CO}-Y(Carboxymethyl)[Phe(4-COOH)]DWL[Bip]V[NMeA][dL][Dab][Cha]V[Cit]C[Orn][AEEA][Aun]-NH2; thioether N-14) | 10.8 |
| CC(C)C[C@H]1NC(=O)[C@H](C)N(C)C(=O)[C@H](Cc2ccc(OCC(=O)O)cc2)NC(=O)[C@H](Cc2ccc(-c3ccccc3)cc2)NC(=O)[C@H](Cc2ccc(OCC(=O)O)cc2)NC(=O)[C@H](Cc2c[nH]c3ccccc23)NC(=O)[C@H](CC(=O)O)NC(=O)[C@H](Cc2ccc(OCC(=O)O)cc2)NC(=O)[C@H]([C@@H](C)O)NC(=O)CSC[C@@H](C(=O)N[C@@H](CCN)C(=O)NCCOCCOCC(=O)NCCCCCCCCCCC(=O)O)NC(=O)[C@H]([C@@H](C)O)NC(=O)[C@H](C(C)C)NC(=O)[C@H](CC2CCCCC2)NC(=O)[C@H](CCC(=O)O)NC1=O [Example 1398] ({CH2CO}-TY(Carboxymethyl)DWY(Carboxymethyl)[Bip]Y(Carboxymethyl)[NMeA][dL]E[Cha]VTC[Dab][AEEA][Aun]-OH; thioether N-14) | 85.5 |
| CC(C)C[C@H]1NC(=O)[C@H](C)N(C)C(=O)[C@H](CCCNC(N)=O)NC(=O)[C@H](Cc2ccc(-c3ccccc3)cc2)NC(=O)[C@H](Cc2ccc(C(=O)O)cc2)NC(=O)[C@H](Cc2cccc(C(F)(F)F)c2)NC(=O)[C@H](CC(=O)O)NC(=O)[C@H](Cc2ccc(OCC(=O)O)cc2)NC(=O)[C@H]([C@H](C)N)NC(=O)CSC[C@@H](C(=O)N[C@@H](CCN)C(=O)NCCOCCOCC(=O)N[C@@H](CCC(=O)NCCOCCOCC(=O)NCCCCCCCCCCCCC(=O)O)C(=O)O)NC(=O)[C@H](CO)NC(=O)[C@H](C(C)(C)O)NC(=O)[C@H](CC2CCCCC2)NC(=O)[C@H](CCN)NC1=O [Example 1205] ({CH2CO}-[Abu(3S-NH2)]Y(Carboxymethyl)D[Phe(3-CF3)][Phe(4-COOH)][Bip][Cit][NMeA][dL][Dab][Cha][Val(3-OH)]SC[Dab][AEEA][γGlu][AEEA]-{NH(CH2)12COOH}; thioether N-14) | 24.7 |
| CCCCCCOC(=O)NCC[C@@H]1NC(=O)[C@@H](CC(C)C)NC(=O)[C@H](C)N(C)C(=O)[C@H](Cc2ccc(OCC(=O)O)cc2)NC(=O)[C@H](Cc2ccc(-c3ccccc3)cc2)NC(=O)[C@H](Cc2ccc(OCC(=O)O)cc2)NC(=O)[C@H](Cc2cccc(C)c2)NC(=O)[C@H](CC(=O)O)NC(=O)[C@H](Cc2ccc(OCC(=O)O)cc2)NC(=O)[C@H]([C@@H](C)O)NC(=O)CSC[C@@H](C(=O)N[C@@H](CCN)C(=O)NCCOCCOCC(=O)NCCCCCCCCCCC(=O)O)NC(=O)[C@H](CCC(=O)O)NC(=O)[C@H](C(C)C)NC(=O)[C@H](CC2CCCCC2)NC1=O [Example 1311] ({CH2CO}-TY(Carboxymethyl)D[Phe(3-Me)]Y(Carboxymethyl)[Bip]Y(Carboxymethyl)[NMeA][dL][Dab](Hexyloxycarbonyl)[Cha]VEC[Dab][AEEA][Aun]-OH; thioether N-14) | 244 |
| CC(C)C[C@@H]1NC(=O)[C@H](Cc2c[nH]c3ccccc23)NC(=O)[C@H](CC(=O)O)NC(=O)[C@H](Cc2ccc(OCC(=O)O)cc2)NC(=O)[C@H](Cc2ccccc2)NC(=O)CSC[C@@H](C(=O)N[C@@H](CCN)C(=O)NCCCCCCCCCCC(=O)O)NC(=O)[C@H]([C@@H](C)O)NC(=O)[C@H](C(C)C)NC(=O)[C@H](CC(C)C)NC(=O)[C@H](CC(N)=O)NC(=O)[C@@H](CC(C)C)NC(=O)[C@H](C)N(C)C(=O)[C@H](C(C)C)NC(=O)[C@H](Cc2ccc(-c3ccccc3)cc2)NC1=O [Example 1333] ({CH2CO}-FY(Carboxymethyl)DWL[Bip]V[NMeA][dL]NLVTC[Dab][Aun]-OH; thioether N-14) | 67.3 |

Continued, values first:

| IC50 [nM] | SMILES |
| --- | --- |
| 47.4 | CC[C@@H](C)[C@@H]1NC(=O)[C@H](Cc2ccc(-c3ccccc3)cc2)NC(=O)[C@H](C(C)C)NC(=O)[C@H](Cc2c[nH]c3ccccc23)NC(=O)[C@H](CC(=O)O)NC(=O)[C@H](Cc2ccc(O)cc2)NC(=O)[C@H](Cc2ccncc2)NC(=O)CSC[C@@H](C(=O)N[C@H](CCCCN)C(=O)NCCOCCOCC(=O)NCCCCCCCCCCC(=O)O)NC(=O)[C@H](CO)NC(=O)[C@H](C(C)C)NC(=O)[C@H](CC2CCCCC2)NC(=O)[C@H](CCN)NC(=O)[C@@H](CC(C)C)NC(=O)[C@H](C)N(C)C1=O [Example 2023] ({CH2CO}-[4Pal]YDWV[Bip][aIle][NMeA][dL][Dab][Cha]VSC[dK][AEEA][Aun]-OH; thioether N-14) |
| 159 | CC(=O)NCCCC[C@@H]1NC(=O)[C@H](Cc2ccc(-c3ccccc3)cc2)NC(=O)[C@H](C(C)C)NC(=O)[C@H](Cc2c[nH]c3ccccc23)NC(=O)[C@H](CC(=O)O)NC(=O)[C@H](Cc2ccc(OCC(=O)O)cc2)NC(=O)[C@H](C(C)O)NC(=O)CSC[C@@H](C(=O)N[C@@H](CCCN)C(=O)N[C@@H](CO)C(=O)NCCCCCCCCCCCC(=O)O)NC(=O)[C@H](CCCN)NC(=O)[C@H](C(C)C)NC(=O)[C@H](CC2CCCCC2)NC(=O)[C@H](CCN)NC(=O)[C@@H](CC(C)C)NC(=O)[C@H](C)N(C)C1=O (stereo partly drawn) [Example 2406] ({CH2CO}-[Thr(3ξ)]Y(Carboxymethyl)DWV[Bip]K(Ac)[NMeA][dL][Dab][Cha]V[Orn]C[Orn]S[12Ado]-OH; thioether N-14) |
| 207 | Cc1cccc(C[C@@H]2NC(=O)[C@H](CC(=O)O)NC(=O)[C@H](Cc3ccncc3)NC(=O)[C@H](Cc3ccc(OCC(=O)O)cc3)NC(=O)CSC[C@@H](C(=O)N[C@@H](CCN)C(=O)NCCOCCOCC(=O)NCCCCCCCCCCC(=O)O)NC(=O)[C@H](CO)NC(=O)[C@H](C(C)(C)O)NC(=O)[C@H](CC3CCCCC3)NC(=O)[C@H](CCN)NC(=O)[C@@H](CC(C)C)NC(=O)[C@H](C)N(C)C(=O)[C@H](Cc3ccc(OCC(=O)O)cc3)NC(=O)[C@H](Cc3ccc(-c4ccccc4)cc3)NC(=O)[C@H](Cc3ccc(OCC(=O)O)cc3)NC2=O)c1 [Example 1412] ({CH2CO}-Y(Carboxymethyl)[4Pal]D[Phe(3-Me)]Y(Carboxymethyl)[Bip]Y(Carboxymethyl)[NMeA][dL][Dab][Cha][Val(3-OH)]SC[Dab][AEEA][Aun]-OH; thioether N-14) |
| 14.2 | Cc1cccc(C[C@@H]2NC(=O)[C@H](CC(=O)O)NC(=O)[C@H](Cc3ccc(OCC(=O)O)cc3)NC(=O)[C@H](Cc3ccc(C(N)=O)cc3)NC(=O)CSC[C@@H](C(=O)N[C@H](CC(N)=O)C(=O)NCCOCCOCC(=O)NCCCCCCCCCCC(=O)O)NC(=O)[C@H](CO)NC(=O)[C@H](C(C)C)NC(=O)[C@H](CC3CCCCC3)NC(=O)[C@H](CCN)NC(=O)[C@@H](CC(C)C)NC(=O)[C@H](C)N(C)C(=O)[C@H](Cc3ccc(O)cc3)NC(=O)[C@H](Cc3ccc(-c4ccccc4)cc3)NC(=O)[C@H](Cc3ccc(OCC(=O)O)cc3)NC2=O)c1 [Example 2423] ({CH2CO}-[Phe(4-CONH2)]Y(Carboxymethyl)D[Phe(3-Me)]Y(Carboxymethyl)[Bip]Y[NMeA][dL][Dab][Cha]VSC[dN][AEEA][Aun]-OH; thioether N-14) |

Same assay, conditions: PE-labeled PD-L1-Ig 20 nM final, Jurkat-hPD-1 cells; read-out: Jurkat HPD1 PDL1 IC50

| SMILES | IC50 [nM] |
| --- | --- |
| Cc1cccc(C[C@@H]2NC(=O)[C@H](CC(=O)O)NC(=O)[C@H](Cc3ccc(OCC(=O)O)cc3)NC(=O)[C@H](C(C)C)NC(=O)CSC[C@@H](C(=O)N[C@@H](CCN)C(=O)NCCOCCOCC(=O)NCCCCCCCCCCC(=O)O)NC(=O)[C@H](CCC(=O)O)NC(=O)[C@H](C(C)(C)O)NC(=O)[C@H](CC3CCCCC3)NC(=O)[C@H](CCN)NC(=O)[C@@H](CC(C)C)NC(=O)[C@H](C)N(C)C(=O)[C@H](Cc3ccc(C(=O)O)cc3)NC(=O)[C@H](Cc3ccc(-c4ccccc4)cc3)NC(=O)[C@H](Cc3ccc(C(=O)O)cc3)NC2=O)c1 [Example 2511] ({CH2CO}-VY(Carboxymethyl)D[Phe(3-Me)][Phe(4-COOH)][Bip][Phe(4-COOH)][NMeA][dL][Dab][Cha][Val(3-OH)]EC[Dab][AEEA][Aun]-OH; thioether N-14) | 16.1 |
| CCC(C)[C@@H]1NC(=O)[C@H](Cc2ccc(-c3ccccc3)cc2)NC(=O)[C@H](C(C)C)NC(=O)[C@H](Cc2c[nH]c3ccccc23)NC(=O)[C@H](CC(=O)O)NC(=O)[C@H](Cc2ccc(OCC(=O)O)cc2)NC(=O)[C@H](Cc2cnc[nH]2)NC(=O)CSC[C@@H](C(=O)N[C@@H](CCN)C(=O)NCCOCCOCC(=O)NCCCCCCCCCCC(=O)O)NC(=O)[C@H](CCC(=O)O)NC(=O)[C@H](C(C)(C)O)NC(=O)[C@H](CC2CCCCC2)NC(=O)[C@H](CCN)NC(=O)[C@@H](CC(C)C)NC(=O)[C@H](C)N(C)C1=O (stereo partly drawn) [Example 2591] ({CH2CO}-HY(Carboxymethyl)DWV[Bip][Ile(3ξ)][NMeA][dL][Dab][Cha][Val(3-OH)]EC[Dab][AEEA][Aun]-OH; thioether N-14) | 3.1 |
